The source of these data is publication PMC6270209, “Synthesis, Antimycobacterial Activity and In Vitro Cytotoxicity of 5-Chloro-N-phenylpyrazine-2-carboxamides” (Molecules, 2013).

Structures are written as SMILES. Converted amounts (≈) assume the structure as drawn. Where two headings read alike, the source gives them in different places. A value given as a limit tells only on which side of the number the result lay.

In series [1] the test system is renal cell adenocarcinoma (ACHN) cell line.
The subject of series [2] is M. tuberculosis H37Rv CNCTC My 331/88. Description: In vitro antimycobacterial activity, microdilution panel method (MIC). The class given is cell-based, Mycobacterium tuberculosis. Background: Broth dilution looks for growth in wells or tubes with falling amounts of substance.
In series [3] the test system is renal cell adenocarcinoma (ACHN) cell line. As to the kind of experiment: cells. The conditions noted are these: Homo sapiens, 24 h, read-out: ACHN IC50.
Series [4] has as its system Chinese hamster ovary (CHO-K1) cell line. Description: cells. Particulars: Cricetulus griseus, CHO-K1, 24 h, read-out: CHO-K1 IC50.
A further series concerns M. avium CNCTC My 152/73. As to the kind of experiment: In vitro antimycobacterial activity, microdilution panel method (MIC). Type of series: cell-based, Mycobacterium avium. Particulars: Mycobacterium avium.
Series [5] relates to Chinese hamster ovary (CHO-K1) cell line.
Series [6] has as its system M. avium ssp. avium Chester CNCTC My 80/72. As to the kind of experiment: In vitro antimycobacterial activity, microdilution panel method (MIC). Type of series: cell-based, Mycobacterium avium. Particulars: Mycobacterium avium.
The conditions of series [7]: RP-HPLC, C18, MeOH 70% / H2O 30%, 30 °C.
Series [8] has as its system M. kansasii Hauduroy CNCTC My 235/80. Description: In vitro antimycobacterial activity, microdilution panel method (MIC). The class given is cell-based, Mycobacterium kansasii. Particulars: Mycobacterium kansasii; M. kansasii Hauduroy CNCTC My 235/80.
The test system of the next series is HepG2 cells. Particulars: comparable HepG2 cytotoxicity assay; cited from earlier work.
The mark [9] stands for this setting: Mycobacterium tuberculosis, H37RV, pH 5.6, M. tuberculosis H37Rv, primary test, dilution scale 100–[…], Šula's medium pH 5.6, read-out: Antimycobacterial activity MIC, M. tbc.

As usually defined, the melting point is the temperature, or range, at which the solid turns liquid. The term IC50 denotes the point on the concentration scale where inhibition reaches its midpoint. For the compound `O=C(Nc1ccc(C(=O)O)c(O)c1)c1cnc(Cl)cn1` [Compound 30, 4-(5-Chloropyrazine-2-carboxamido)-2-hydroxybenzoic acid], the melting point was 240 to 244 °C (dec.). For the same compound, the “Cytotoxicity rating in ACHN cell line (in words)” value in series [1] is reported as “non-toxic”. Moreover, the MIC in [2] (MIC converted to molar concentrations, read-out: M. tbc H37Rv MIC) was determined as 10.7 µM. Further, the “Activity in comparison with PZA (times more active)” value in [2] (MIC for M. tbc H37Rv in µM compared) is on record as 5–10 times. Also, the MIC in series [2] (setting [9]) was found to be 3.13 µg/mL. Also, the MIC in [2] (Mycobacterium tuberculosis, H37RV, read-out: M. tbc H37Rv MIC (µM), MIC converted to molar concentrations) was 10 µM. Further, in [3], the IC50 came out at 371 ± 96 µM. Also, in series [4], the IC50 was 502 ± 122 µM. Moreover, in the series with M. avium CNCTC My 152/73, the MIC is greater than 100 µg/mL. In series [5], the “Cytotoxicity rating in CHO-K1 cell line (in words)” value is on record as “non-toxic”. For the same compound, the MIC in series [6] is greater than 100 µg/mL.

With `NNC(=O)c1ccncc1` [INH, isoniazid, reference compound], the Lipophilicity logk in series [7] is −0.743. The MIC lay in the range of 0.39 to 0.78 µg/mL in [2] (setting [9]), 12.5 to 25 µg/mL (≈ 91.1 to 182 µM) in [8], 3.13 to 6.25 µg/mL (≈ 22.8 to 45.6 µM) in the series on M. avium CNCTC My 152/73 and 12.5 to 25 µg/mL (≈ 91.1 to 182 µM) in [6]. Also, the half-inhibitory concentration (IC50) with HepG2 cells is 79000 µM.
